# US7045636B2, “MCH antagonists for the treatment of obesity” (Schering Corporation, priority 2001, dated 2006)
# Target: T1, MCH receptor (Homo sapiens, UniProt Q99705)
# T1 construct: expressed in transfected cells; host or cells: CHO cells
# Test: MCH Receptor Binding Assay
# Conditions: Table 1; membranes from CHO cells expressing the MCH receptor, [125I]-MCH, SPA; read-out: MCH Ki (nm)
# Procedure: MCH Receptor Binding Assay:
# Membranes from CHO cells expressing the MCH receptor were prepared by lysing cells with 5 mM HEPES for 15 min at 4C. Cell lysates were centrifuged ([…], 15 min) and the pellet was re-suspended in 5 mM HEPES. For each 96-well plate (Microlite, Dynex Technologies), 1 mg of cell membranes were incubated with 10 mg of wheat germ agglutinin SPA beads (Amersham) for 5 min at 4 C in a volume of 10 ml of binding buffer (25 mM HEPES, 10 mM MGCl2, 10 mM NaCl, 5 mM MnCl2, 0.1% BSA). The membrane/bead mixture was centrifuged (1500×g, 3.5 min), the supernatant was aspirated, and the pellet was re-suspended in 10 ml binding buffer. The centrifugation, aspiration and re-suspension were then repeated. The membrane/bead mixture (100 μl) was then added to 96-well plates containing 50 μl of 500 pM [^125I]-MCH (NEN) and […] of the appropriate concentration of compound (4× the desired final concentration). Nonspecific binding was determined by including 1 μM MCH in the binding reaction. The binding reaction was incubated at room temperature for 2 h. Plates were then analyzed in a TOPCOUNT microplate scintillation counter (Packard). Data was analyzed and Ki values were determined using GraphPad Prim.
# T1 sequence (Q99705 whole entry): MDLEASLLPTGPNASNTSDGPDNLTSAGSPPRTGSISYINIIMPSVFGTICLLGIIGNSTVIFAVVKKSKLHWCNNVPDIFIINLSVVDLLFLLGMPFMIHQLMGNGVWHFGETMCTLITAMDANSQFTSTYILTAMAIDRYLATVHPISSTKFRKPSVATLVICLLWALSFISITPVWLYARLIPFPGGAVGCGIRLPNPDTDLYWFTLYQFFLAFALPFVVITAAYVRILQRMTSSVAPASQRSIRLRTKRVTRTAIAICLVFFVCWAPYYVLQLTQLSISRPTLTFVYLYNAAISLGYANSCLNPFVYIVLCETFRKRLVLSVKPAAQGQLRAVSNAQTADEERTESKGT
row,SMILES,Ki [nM]
1,N#Cc1cccc(-c2ccc(CCN(CC(=O)Nc3ccc(F)c(Cl)c3)C(=O)CN3CC[C@@H](O)C3)cc2)c1 [Example 3],3.7
2,N#Cc1cccc(-c2ccc(CCN(CC(=O)Nc3ccc(F)c(Cl)c3)C(=O)CN3CCCC3)cc2)c1 [Example 4],5.3
3,N#Cc1cccc(-c2ccc(CCN(CC(=O)Nc3cc(F)cc(C(F)(F)F)c3)C(=O)CN3CC[C@@H](O)C3)cc2)c1 [Example 5],6.7
4,N#Cc1cccc(-c2ccc(CCN(CC(=O)Nc3cc(Cl)cc(Cl)c3)C(=O)CCN3CC[C@H](O)C3)cc2)c1 [Example 6],7.2
5,N#Cc1cccc(-c2ccc(CCN(CC(=O)Nc3cc(Cl)cc(Cl)c3)C(=O)CN3CCCCC3)cc2)c1 [Example 7],9.3
6,N#Cc1cccc(-c2ccc(CCN(CC(=O)Nc3cc(Cl)cc(Cl)c3)C(=O)CCN3CCCC3)cc2)c1 [Example 9],10
7,N#Cc1cccc(-c2ccc(CCN(CC(=O)Nc3ccc(Cl)c(C(F)(F)F)c3)C(=O)CN3CC[C@@H](O)C3)cc2)c1 [Example 10],11
8,N#Cc1cccc(-c2ccc(CCN(CC(=O)Nc3cc(F)cc(C(F)(F)F)c3)C(=O)CN3CCCC3)cc2)c1 [Example 11],11.7
9,N#Cc1cccc(-c2ccc(CCN(CC(=O)Nc3cc(Cl)cc(Cl)c3)C(=O)CCN3CC[C@@H](O)C3)cc2)c1 [Example 12],12
10,N#Cc1cccc(-c2ccc(CN(CC(=O)Nc3cc(Cl)cc(Cl)c3)C(=O)NCCN3CCCC3)cc2)c1 [Example 13],13
11,N#Cc1cccc(-c2ccc(CCN(CC(=O)Nc3cc(Cl)cc(Cl)c3)C(=O)CN3CCCC3)cc2)c1 [Example 15],19
12,CCCNCCC(=O)N(CCc1ccc(-c2cccc(C#N)c2)cc1)CC(=O)Nc1cc(Cl)cc(Cl)c1 [Example 16],24
13,N#Cc1cccc(-c2ccc(CCN(CC(=O)Nc3ccc(Cl)c(C(F)(F)F)c3)C(=O)CN3CCCC3)cc2)c1 [Example 17],25
14,N#Cc1cccc(-c2ccc(CN(CC(=O)Nc3cc(Cl)cc(Cl)c3)C(=O)CN3CC[C@H](O)C3)cc2)c1 [Example 18],27
15,N#Cc1cccc(-c2ccc(CCN(CC(=O)Nc3ccc(F)c(C(F)(F)F)c3)C(=O)CN3CCCC3)cc2)c1 [Example 19],28
16,N#Cc1cccc(-c2ccc(CCN(CC(=O)Nc3cc(Cl)cc(Cl)c3)C(=O)CCN3CCC3)cc2)c1 [Example 20],32
17,N#Cc1cccc(-c2ccc(CN(CC(=O)Nc3cc(Cl)cc(Cl)c3)C(=O)CN3CCCC3)cc2)c1 [Example 21],35
18,CN(C)CC(=O)N(CC(=O)Nc1cc(Cl)cc(Cl)c1)Cc1ccc(-c2cccc(C#N)c2)cc1 [Example 22],36
19,N#Cc1cccc(-c2ccc(CN(CC(=O)Nc3cc(Cl)cc(Cl)c3)C(=O)C3CN(C4CCCC4)C3)cc2)c1 [Example 24],40
20,CN(C)CC(=O)N(CC(=O)Nc1cc(Cl)cc(Cl)c1)c1ccc(-c2cccc(C#N)c2)cc1 [Example 25],52
21,CC(C(=O)Nc1cc(Cl)cc(Cl)c1)N(Cc1ccc(-c2cccc(C#N)c2)cc1)C(=O)CCN1CC[C@H](O)C1 (stereo partly drawn) [Example 26],56
22,N#Cc1cccc(-c2ccc(CN(CC(=O)Nc3cc(Cl)cc(Cl)c3)C(=O)CN3CC[C@@H](O)C3)cc2)c1 [Example 27],61
23,CN1CCN(CC(=O)N(CCc2ccc(-c3cccc(C#N)c3)cc2)CC(=O)Nc2cc(Cl)cc(Cl)c2)CC1 [Example 28],63
24,N#Cc1cccc(-c2ccc(CN(CC(=O)Nc3ccc(F)c(C(F)(F)F)c3)C(=O)CN3CCCC3)cc2)c1 [Example 29],72
25,CC(C(=O)Nc1cc(Cl)cc(Cl)c1)N(Cc1ccc(-c2cccc(C#N)c2)cc1)C(=O)CCN1CCCC1 (stereo not drawn) [Example 30],73
26,CC(=O)N[C@@H]1CCN(CC(=O)N(CCc2ccc(-c3cccc(C#N)c3)cc2)CC(=O)Nc2cc(Cl)cc(Cl)c2)C1 [Example 31],82
27,CN(C)CC(=O)N(CCc1ccc(-c2cccc(C#N)c2)cc1)CC(=O)Nc1cc(Cl)cc(Cl)c1 [Example 32],90
28,CC(C(=O)Nc1cc(Cl)cc(Cl)c1)N(CCc1ccc(-c2cccc(C#N)c2)cc1)C(=O)CN1CC[C@H](O)C1 (stereo partly drawn) [Example 36],8
29,CC(C(=O)Nc1cc(Cl)cc(Cl)c1)N(CCc1ccc(-c2cccc(C#N)c2)cc1)C(=O)CN1CCCCC1 (stereo not drawn) [Example 37],9

# Same assay, conditions: Table 2; membranes from CHO cells expressing the MCH receptor, [125I]-MCH, SPA; read-out: Ki (MCH)
row,SMILES,Ki [nM]
1,CC(c1ccc(-c2cccc(C#N)c2)cc1)N(CC(=O)Nc1cc(Cl)cc(Cl)c1)C(=O)CCN1CC[C@@H](O)C1 (stereo partly drawn) [Example 41],12
2,CC(c1ccc(-c2cccc(C#N)c2)cc1)N(CC(=O)Nc1cc(Cl)cc(Cl)c1)C(=O)CN1CC[C@H](O)C1 (stereo partly drawn) [Example 42],16
3,C[C@@H](c1ccc(-c2cccc(C#N)c2)cc1)N(CC(=O)Nc1cc(Cl)cc(Cl)c1)C(=O)CCN1CC[C@@H](O)C1 [Example 43],18
4,C[C@@H](c1ccc(-c2cccc(C#N)c2)cc1)N(CC(=O)Nc1cc(Cl)cc(Cl)c1)C(=O)CCN1CCCCC1 [Example 44],18
5,CCCNCCC(=O)N(CC(=O)Nc1cc(Cl)cc(Cl)c1)[C@@H](C)c1ccc(-c2cccc(C#N)c2)cc1 [Example 45],22
6,C[C@@H](c1ccc(-c2cccc(C#N)c2)cc1)N(CC(=O)Nc1cc(Cl)cc(Cl)c1)C(=O)CCNCC1CC1 [Example 46],22
7,C[C@H](c1ccc(-c2cccc(C#N)c2)cc1)N(CC(=O)Nc1cc(Cl)cc(Cl)c1)C(=O)CCN1CC[C@@H](O)C1 [Example 47],23
8,C[C@@H](c1ccc(-c2cccc(C#N)c2)cc1)N(CC(=O)Nc1cc(Cl)cc(Cl)c1)C(=O)CCNC1CCC1 [Example 48],28
9,C[C@H](c1ccc(-c2cccc(C#N)c2)cc1)N(CC(=O)Nc1cc(Cl)cc(Cl)c1)C(=O)CN1CC[C@@H](O)C1 [Example 49],31
10,CC(C)CNCCC(=O)N(CC(=O)Nc1cc(Cl)cc(Cl)c1)[C@@H](C)c1ccc(-c2cccc(C#N)c2)cc1 [Example 50],34
11,C[C@@H](c1ccc(-c2cccc(C#N)c2)cc1)N(CC(=O)Nc1cc(Cl)cc(Cl)c1)C(=O)CCN(C)C [Example 51],45
12,C[C@@H](c1ccc(-c2cccc(C#N)c2)cc1)N(CC(=O)Nc1cc(Cl)cc(Cl)c1)C(=O)CCNC1CCCC1 [Example 52],67
13,CNCCC(=O)N(CC(=O)Nc1cc(Cl)cc(Cl)c1)[C@@H](C)c1ccc(-c2cccc(C#N)c2)cc1 [Example 53],78

# Same assay, conditions: printed unit nM; read-out: MCH Ki
row,SMILES,Ki [nM]
1,N#Cc1cccc(-c2ccc(CC(=O)N(CCCN3CCCC3)CC(=O)Nc3cc(Cl)cc(Cl)c3)cc2)c1 [Example 61],62

# Same assay, conditions: text of the example; printed unit nm; read-out: MCH Ki
row,SMILES,Ki [nM]
1,N#Cc1cccc(-c2ccc(CN(CC(=O)Nc3cc(Cl)cc(Cl)c3)C(=O)CCN3CCCC3)cc2)c1 [Example 1],21
2,CC(c1ccc(-c2cccc(C#N)c2)cc1)N(CC(=O)Nc1cc(Cl)cc(Cl)c1)C(=O)CN1CCCC1 (stereo not drawn) [Example 40],21
